From patent publication US9023859B2, “Composition and method for treating or preventing skeletal muscle fibrosis” (State of Israel, Ministry of Agriculture, Agricultural …, priority 2007, dated 2015)

Tests used:
[1] = system: Mdx mice; assay: Collagen content (Sirius red) and collagen α1(I) gene expression (in situ hybridization) in quadriceps and tibialis muscles; type: in vivo; conditions: I.P. 3 μg/mouse every other day, 4 weeks from 5 weeks of age
Description: Mdx mice were treated either with halofuginone by I.P. injection every other day (3 μg/mouse) starting at 5 weeks of age for 4 weeks, or with saline vehicle. C57B mice were used as controls. At the end of the 4 week period, tibialis anterior (fast) and quadriceps (slow) muscles were removed for evaluation of fibrosis by Sirius red staining for collagen content, and by in situ hybridization of collagen α1(I) gene expression.

[2] = system: Mdx mice; assay: Effect on fibrosis (collagen by Sirius red, image analysis) in diaphragm, gastrochnemius and tibialis muscles; type: in vivo; conditions: I.P. 5 μg/mouse every other day; for reduction of collagen levels: diaphragm; for reduction of collagen content: gastrochnemius
Description: Halofuginone was administered by I.P injection to mdx mice (n=7) from 3 weeks of age every other day at a concentration of 5 μg/mouse. The wild type (C57/BL) and mdx mice without halofuginone served as controls. At the age of 7 and 11 weeks the mice were sacrificed and the diaphragm, gastrochnemius and the tibialis were fixed for histology and samples were frozen for further analysis. Sections were stained for collagen by Sirius red and with methyl green as a counter stain. Image analysis using the Image Pro software was performed for statistical evaluation of the effect of halofuginone on collagen content. For the image analysis, images were taken from 3 animals/group and 4 replicates from each animal/tissue. The results are the ratio of red (R) to green color (G).

[3] = system: Mdx mice; assay: Effect on muscle regeneration (diaphragm central nuclei counting); type: in vivo, mouse; conditions: 5 μg or 7.5 μg for 1 or 2 months from 3 weeks of age; dose-dependent
Description: Mdx mice were treated with halofuginone 5 μg or 7.5 μg for 1 or 2 months starting at age of 3 weeks. The untreated mdx mice served as controls. At the end of the experiment, the diaphragms were taken for hematoxyline & eosin staining before central nuclei counting. The results are the mean±SE of 20 photos taken from 3 different mice. Each photo contained approximately 120 fibers

[4] = system: myostatin gene expression; assay: Myostatin gene expression in fibrotic liver (preliminary experiments); type: in vivo

## O=C(CC1NCCC[C@H]1O)Cn1cnc2cc(Br)c(Cl)cc2c1=O (stereo in doubt) [halofuginone, 7-bromo-6-chloro-3-[3-(3-hydroxy-2-piperidinyl)-2-oxopropyl]-4(3H)-quinazolinone]
[1]; Sirius red
  increase in amount of collagen fibers in mdx muscles: almost completely prevented
[1]; in situ hybridization
  increase in expression of collagen α1(I) gene in mdx muscles: almost completely prevented
[2]; 7 weeks of age (4 weeks of treatment)
  reduction of collagen levels: 25%
[2]; 11 weeks of age (8 weeks of treatment)
  reduction of collagen levels: 53%
[2]; 7 weeks of age
  reduction of collagen content: 25%
[2]; 11 weeks of age
  reduction of collagen content: 33%
[2]; tibialis muscle
  effect on collagen content: No effect
[3]
  number of diaphragm central nuclei: major reduction
[4]
  myostatin gene expression: inhibition
